In publication PMC12549899 (Nature Communications, 2025):
Where “and” joins values, the source holds several entries; their conditions need not be identical. Equal values may be shown once.

Target: T1, DrOTOP1 G130W/A274W (Danio rerio, UniProt Q7ZWK8, A274W/G130W)
T1 construct: A previously generated codon-optimized full-length DrOTOP1[8]; (UniProt: Q7ZWK8) construct; expressed in transfected cells; host or cells: HEK-293 (CRL-1573, ATCC)
T1 sequence (Q7ZWK8 1-586 G130W/A274W): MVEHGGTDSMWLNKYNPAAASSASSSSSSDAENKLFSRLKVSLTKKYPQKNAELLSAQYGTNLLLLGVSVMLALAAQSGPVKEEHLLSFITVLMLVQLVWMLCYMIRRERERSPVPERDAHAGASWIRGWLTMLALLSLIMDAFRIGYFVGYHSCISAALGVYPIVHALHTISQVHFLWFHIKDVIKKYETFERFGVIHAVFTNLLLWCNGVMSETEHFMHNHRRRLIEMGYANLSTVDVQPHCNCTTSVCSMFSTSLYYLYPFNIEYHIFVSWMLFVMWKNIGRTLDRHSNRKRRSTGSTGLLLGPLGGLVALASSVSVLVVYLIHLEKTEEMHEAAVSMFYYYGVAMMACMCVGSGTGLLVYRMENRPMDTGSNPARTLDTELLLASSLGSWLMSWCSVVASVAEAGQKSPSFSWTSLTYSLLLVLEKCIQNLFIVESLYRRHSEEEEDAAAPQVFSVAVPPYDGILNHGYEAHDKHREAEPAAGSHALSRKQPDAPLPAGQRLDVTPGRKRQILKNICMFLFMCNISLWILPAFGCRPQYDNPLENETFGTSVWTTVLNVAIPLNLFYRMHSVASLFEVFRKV
Assay: Whole-cell patch-clamp, inhibition of acid-evoked currents, DrOTOP1 G130W/A274W
Assay type: cell-based, zebrafish (Danio rerio)
Protocol: Given our limited success in identifying mutations of the central site that disrupt antagonism by C2.2, we tested whether mutations of the central site in a background of G130W (the most impactful outer site mutation) might unmask contributions of this site. Thus, we generated and tested double mutants of G130W with E384A, A274W, and A388W. […] We also measured the dose-dependence of inhibition by C2.2 for both G130W/A388W and G130W/E384A (Fig. 5I, J). […] G130W was tested in parallel to confirm that 100 and 300 μM C2.2 produced dose-dependent inhibition.
HEK-293 cells (CRL-1573, ATCC) were cultured in DMEM (Thermofisher 11995073) containing 10% fetal bovine serum (Life Technology 16000044) and Penicillin-Streptomycin (100 I.U./mL) and (100 µg/mL), respectively. Cells were transfected with WT DrOTOP1 or mutant DrOTOP1 channels in 35 mm petri dishes, with ~ 500 ng DNA and 2 μL TransIT-LT1 transfection reagent (Mirus Bio Corporation, Cat # MIR2300) following the manufacturer’s protocol. […]
Whole-cell patch-clamp recording was performed as previously described[6],[22],[25]. Recordings were made with an Axopatch 200B amplifier, digitized with a Digidata 1322a 16-bit data acquisition system, acquired with pClamp 8.2 and analyzed with Clampfit 10 (Molecular Devices). […]
All data are presented as mean ± SEM unless otherwise noted, and each data point represents an independent replicant. Inhibition of compounds was quantified as ((I2peak-I1)/(I2peak))*100, where I1 is the current immediately before wash-off and I2peak is the maximum recovered current (Supplementary Fig. 2). Hill coefficients were determined by the following equation: Y = Bmax*X^h/(Kd^h + X^h). Absolute IC50 was determined by the following equation: Fifty = (Top + Baseline)/2 Y = Bottom + (Top-Bottom)/(1 + ((Top-Bottom)/(Fifty-Bottom) − 1)*(AbsoluteIC50/X)^HillSlope). pH50 curves (Fig. 6G inset) were determined using the following equation: Y = Bottom + (Top-Bottom)/(1 + (EC/X)^HillSlope) where EC = EC50 control. […]

| SMILES | inhibition at 10 µM (10 µM, single cells or mean) | Inhibition of currents (100 µM, single cells) | inhibition at 100 µM (100 µM, single cells) |
| --- | --- | --- | --- |
| C=C(C)COc1ccccc1NC(=O)c1nc[nH]c1C [C2.2] | 8.49% | – | – |
| O=C(/C(=N\O)c1ccccc1)c1ccccc1 [C11, benzil monoxime] | – | 67.5079% and 70.0684% and 78.866% and 74.4022% | 67.5% |
